Consider eleven molecules from US9200015B2, “Inositol hexakisphosphate analogs and uses thereof” (priority 2011, dated 2015).

“Also recorded” adds a separate entry of the source. Read-outs that look alike come from different tables or passages of the source.

For series [1], the system named is TcdA and TcdB holotoxins. The format is biochemical, Clostridium difficile. The settings on record: for AC50: read-out: AC50 (concentration that provides half the maximum activity). The method, then:
(§1) In Vitro Testing of Nitroso-InsP6 Derivatives. In vitro testing and measurement of binding affinities of compounds are performed using toxin cleavage assays, and by radioligand or BIACORE-toxin binding studies, respectively. For medium throughput toxin cleavage assays, autocleavage of 1 μg TcdA and TcdB holotoxins is performed in 25 μL 20 mM Tris-HCI, 150 mM NaCI (pH 7.4) with and without InsP6 for 10-60 min at 37° C. (FIG. 6). Cleavage reactions are then stopped with SDS-PAGE loading buffer and boiling at 96° C. for 5 min. Samples are then run under reducing conditions on 4-20% gradient gels and cleavage products stained with GelcodeBiue™ for 1 hr and cleared in water overnight. AC50 and IC50 concentrations are calculated by measuring the relative absorbance of cleavage fragments relative to intact toxin using a LiCor Odyssey infrared scanner (λ=680 nm). Cleavage is plotted against ligand concentration using four-parameter logistic curve fitting on SigmaPlot 11.0 software. If the toxin cleavage efficiency remains unaltered in purified nitroso-InsP6 fractions, then toxin Rac1 glucosylation and cell rounding assays are initiated to evaluate cytoprotection in cell culture systems. […] Thus, enzymatic digestions of nitroso-InsP6 derivatives are carried out with EC 3.1.3.8 (type 3 phytase); EC 3.1.3.72 (type 5 phytase), and EC 3.1.3.26 (type 4/6 phytase) to test whether the NO-modifications are nonhydrolysable (e.g., FIG. 7).

The test system of series [2] is C. difficile (strain VPI 10463). The series can be described thus: Murine CDI model, InsP6 given intragastrically. The settings on record: for Protection of mice from CDI (survival): oral/intragastric 0.25 and 2.5 mg/kg/day, 10^6 C. difficile, survival at day 6. Format: in vivo, C57BL/6 mice. As for the experimental part: FIGS. 3A-3D show therapeutic allostery and examples of the assays to test designed compounds. […] (FIGS. 3C-3D) Kaplan-Meier survival plots of infected mice. C57BL/6 mice were inoculated with 10^6 C. difficile.
Optimization of Phytase-Resistant InsP6 Analogues for CDI Therapy. Aspects of the present invention provide compositions and methods of neutralizing C. difficile exotoxins in the extracellular gut environment. […] C57BL/6 mice were administered antibiotics and then orally inoculated with 10^4-to-10^6 C. difficile (strain VPI 10463). Disease outcome measures included evidence of inflammation and fluid secretion in the caecum and colon of severely afflicted animals, and of characteristic pseudomembraneous histopathologic lesions in the colonic mucosa. […] The highest bacterial dose (10^6 CFU) was used to test for InsP6 efficacy given intra-gastrically (0.25-to-2.5 mg/kg/day; range is within the recommended oral daily dose for humans (1,020 mg/day)).

In the next series the test system is Caco-2 colonocytes. The series can be described thus: Inhibition of toxin-induced cytotoxicity in Caco-2 colonocytes. The format is cell-based. Conditions: Homo sapiens, FIG. 3A right.
The target of series [3] is TcdA and TcdB holotoxins (Clostridioides difficile, UniProt P18177). The format is biochemical, Clostridium difficile. The method, then:
as §1

For a further series, the system named is C. difficile. As to the kind of experiment: Experimental CDI model, delivery by implanted mini-osmotic pumps. Format: in vivo, mice. The settings on record: 12.5 mg/kg/day by 7 day mini-osmotic pumps, from 1 day before inoculation with 10^6 bacteria. From the text:
In this set of experiments, vehicle treatment was associated with 100% mortality, vs. 40% and 10% for InsP6 and nitroso-InsP6 groups, respectively.
Because of the current uncertainty of the nitroso-InsP6 chemistry, there may be potential limitations to oral nitroso-InsP6 delivery as this molecule may show poor colonic bioavailability due to degradation and absorption in the small intestine.

A further series relates to phytase. The settings on record: FIG. 7. As for the experimental part: In Vitro Testing of Nitroso-InsP6 Derivatives. In vitro testing and measurement of binding affinities of compounds are performed using toxin cleavage assays, and by radioligand or BIACORE-toxin binding studies, respectively. For medium throughput toxin cleavage assays, autocleavage of 1 μg TcdA and TcdB holotoxins is performed in 25 μL 20 mM Tris-HCI, 150 mM NaCI (pH 7.4) with and without InsP6 for 10-60 min at 37° C. (FIG. 6). Cleavage reactions are then stopped with SDS-PAGE loading buffer and boiling at 96° C. for 5 min. Samples are then run under reducing conditions on 4-20% gradient gels and cleavage products stained with GelcodeBiue™ for 1 hr and cleared in water overnight. AC50 and IC50 concentrations are calculated by measuring the relative absorbance of cleavage fragments relative to intact toxin using a LiCor Odyssey infrared scanner (λ=680 nm). Cleavage is plotted against ligand concentration using four-parameter logistic curve fitting on SigmaPlot 11.0 software. If the toxin cleavage efficiency remains unaltered in purified nitroso-InsP6 fractions, then toxin Rac1 glucosylation and cell rounding assays are initiated to evaluate cytoprotection in cell culture systems. […]

Where [4] appears, read: Table 1, representative inositol analogs.

TcdA and TcdB holotoxins (Clostridioides difficile, UniProt P18177), sequence (P18177 2-2366 limits assumed): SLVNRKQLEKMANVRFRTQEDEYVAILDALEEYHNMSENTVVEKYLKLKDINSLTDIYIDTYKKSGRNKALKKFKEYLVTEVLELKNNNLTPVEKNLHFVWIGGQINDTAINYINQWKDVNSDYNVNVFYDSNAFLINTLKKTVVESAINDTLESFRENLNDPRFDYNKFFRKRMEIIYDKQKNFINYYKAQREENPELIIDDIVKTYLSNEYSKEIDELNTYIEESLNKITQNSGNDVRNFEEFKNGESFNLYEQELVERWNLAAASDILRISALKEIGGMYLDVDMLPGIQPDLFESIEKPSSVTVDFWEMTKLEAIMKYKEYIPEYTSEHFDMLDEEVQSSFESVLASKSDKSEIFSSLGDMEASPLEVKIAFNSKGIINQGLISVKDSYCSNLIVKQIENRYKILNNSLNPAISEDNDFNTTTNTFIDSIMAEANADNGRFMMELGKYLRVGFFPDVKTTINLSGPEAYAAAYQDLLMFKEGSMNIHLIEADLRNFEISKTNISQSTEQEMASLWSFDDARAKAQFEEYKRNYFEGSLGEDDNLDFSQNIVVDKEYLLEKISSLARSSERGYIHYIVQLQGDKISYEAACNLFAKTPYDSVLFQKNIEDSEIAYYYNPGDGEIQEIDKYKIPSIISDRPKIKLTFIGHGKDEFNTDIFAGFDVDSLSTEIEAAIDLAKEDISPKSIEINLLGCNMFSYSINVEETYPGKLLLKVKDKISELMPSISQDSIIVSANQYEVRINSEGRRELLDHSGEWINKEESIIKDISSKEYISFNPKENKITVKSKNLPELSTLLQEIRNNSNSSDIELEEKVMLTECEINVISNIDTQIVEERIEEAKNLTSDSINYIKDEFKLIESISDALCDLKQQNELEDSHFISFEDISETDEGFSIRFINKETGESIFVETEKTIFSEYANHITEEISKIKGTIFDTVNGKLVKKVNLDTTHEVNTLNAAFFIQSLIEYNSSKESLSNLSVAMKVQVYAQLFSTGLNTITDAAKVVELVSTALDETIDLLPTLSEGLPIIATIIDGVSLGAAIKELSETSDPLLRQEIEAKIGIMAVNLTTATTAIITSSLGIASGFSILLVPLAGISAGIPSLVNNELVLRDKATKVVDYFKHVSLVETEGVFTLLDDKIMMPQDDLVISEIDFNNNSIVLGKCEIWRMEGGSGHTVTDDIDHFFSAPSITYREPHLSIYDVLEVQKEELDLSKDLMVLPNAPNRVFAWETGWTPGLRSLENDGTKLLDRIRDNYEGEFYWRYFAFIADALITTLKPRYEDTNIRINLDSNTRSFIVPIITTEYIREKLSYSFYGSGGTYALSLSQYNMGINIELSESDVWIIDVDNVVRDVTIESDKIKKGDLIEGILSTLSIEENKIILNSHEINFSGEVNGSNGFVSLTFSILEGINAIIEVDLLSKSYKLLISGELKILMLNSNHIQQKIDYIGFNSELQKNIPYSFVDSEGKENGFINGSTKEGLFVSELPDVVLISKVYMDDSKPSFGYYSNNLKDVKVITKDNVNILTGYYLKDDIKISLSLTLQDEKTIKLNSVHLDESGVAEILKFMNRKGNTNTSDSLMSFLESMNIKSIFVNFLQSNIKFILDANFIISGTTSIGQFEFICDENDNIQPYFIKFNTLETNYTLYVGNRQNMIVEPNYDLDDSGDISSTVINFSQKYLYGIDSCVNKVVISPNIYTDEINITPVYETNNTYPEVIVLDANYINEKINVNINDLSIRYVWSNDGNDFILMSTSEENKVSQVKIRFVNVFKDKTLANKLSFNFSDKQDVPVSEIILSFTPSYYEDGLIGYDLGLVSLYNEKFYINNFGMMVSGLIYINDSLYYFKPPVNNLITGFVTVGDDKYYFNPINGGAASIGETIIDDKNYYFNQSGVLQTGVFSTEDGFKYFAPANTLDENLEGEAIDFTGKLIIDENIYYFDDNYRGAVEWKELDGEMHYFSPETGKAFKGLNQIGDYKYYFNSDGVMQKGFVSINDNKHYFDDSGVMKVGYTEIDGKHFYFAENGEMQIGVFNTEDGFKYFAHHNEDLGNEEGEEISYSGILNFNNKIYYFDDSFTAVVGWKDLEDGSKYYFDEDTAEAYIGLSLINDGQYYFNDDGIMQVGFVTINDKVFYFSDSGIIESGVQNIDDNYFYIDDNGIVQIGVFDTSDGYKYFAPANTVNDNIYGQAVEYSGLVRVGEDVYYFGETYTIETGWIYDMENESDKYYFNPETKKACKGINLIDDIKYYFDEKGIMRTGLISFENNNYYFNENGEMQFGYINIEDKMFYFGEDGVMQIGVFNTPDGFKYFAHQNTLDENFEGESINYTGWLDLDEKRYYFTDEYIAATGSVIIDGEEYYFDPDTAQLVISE

Consider `O=P(O)(O)OC1C(O)C(OP(=O)(O)O)C(OP(=O)(O)O)C(OP(=O)(O)O)C1OP(=O)(O)O` (stereo not drawn) [Myo-InsP5(3), myo-inositol-(1,2,4,5,6-pentakisphosphate)], for which the AC50 in the series on TcdA and TcdB holotoxins [1] (setting [4]) amounted to 95.6 µM. Take `O[C@H]1[C@H](O)[C@@H](O)[C@H](O)[C@@H](O)[C@H]1O` [myo-inositol, (1R,2R,3S,4S,5R,6S)-cyclohexane-1,2,3,4,5,6-hexol]: in series [2], the “Protection of mice from CDI (survival)” value is given as “not evident”. For `O=P(O)(O)O[C@H]1[C@H](OP(=O)(O)O)[C@@H](OP(=O)(O)O)[C@H](OP(=O)(O)O)[C@@H](OP(=O)(O)O)[C@H]1OP(=O)(O)O` [Myo-InsP6, myo-inositol-hexakisphosphate], in series [2] (2.5 mg/kg group), the “Statistical significance of the protective effect” value is recorded as “statistically significant”. For the same molecule, the “Protection of mice from CDI (survival)” value in series [2] was “dose dependently protects mice from CDI; also recorded: dose-dependent protective effects”. Besides, the IC50 (as a rule, the concentration that gives 50% inhibition) in the series with Caco-2 colonocytes is 10 µM. In addition, in the series with TcdA and TcdB holotoxins [1], the AC50 was 14.8 µM. Further, at TcdA and TcdB holotoxins [3] (FIGS. 3A-3B), the “IC50, C. difficile toxins autocleaved” value turned out to be 10 µM. At TcdA and TcdB holotoxins [3] (TcdB, FIG. 3A left), the “AC50, toxin autocleavage” value stood at 10 µM. For the same molecule, the Mortality with C. difficile is recorded as 40%. Take inositolhexakissulfate [InS6]: the “Toxin cleavage activity (preliminary studies)” value in the series with TcdA and TcdB holotoxins [1] is on record as “active compound”. Turning to `OP(O)(=S)OC1C(OP(O)(O)=S)C(OP(O)(O)=S)C(OP(O)(O)=S)C(OP(O)(O)=S)C1OP(O)(O)=S` [Myo-InsP6(S), myo-inositol-(1,2,3,4,5,6-phosphorothioate)], the Phytase resistance entry in the series on phytase is recorded as “increased phytase resistance”. In addition, the AC50 in the series with TcdA and TcdB holotoxins [1] (setting [4]) came out at 1.99 µM. As to “(1/3)-phospho-myo-inositol hexaakisphosphate [Myo-InsP7(1/3)]”, the AC50 in the series on TcdA and TcdB holotoxins [1] (setting [4]) is 3.04 µM. Regarding `O=P(O)(O)OC1C(O)C(OP(=O)(O)O)C(OP(=O)(O)O)C(OP(=O)(O)O)C1O` (stereo not drawn) [Myo-InsP4(4,6), myo-inositol-(1,2,3,5-tetrakisphosphate)], the AC50 in the series with TcdA and TcdB holotoxins [1] (setting [4]) is > 1000 µM.

As for `O=P(O)(O)OC1C(O)C(OP(=O)(O)O)C(OP(=O)(O)O)C(OP(=O)(O)O)C1OP(=O)(O)O` (stereo not drawn) [Myo-InsP5(2), myo-inositol-(1,3,4,5,6-pentakisphosphate)], the AC50 in the series with TcdA and TcdB holotoxins [1] (setting [4]) was determined as 10.5 µM. Regarding `O=P(O)(O)OC1[C@H](OP(=O)(O)O)[C@H](OP(=O)(O)O)C(O)[C@H](OP(=O)(O)O)[C@H]1OP(=O)(O)O` (stereo partly drawn) [Myo-InsP5(4), myo-inositol-(1,2,3,5,6-pentakisphosphate)], the AC50 in the series with TcdA and TcdB holotoxins [1] is > 1000 µM.

With `O=P(O)(O)OC1C(O)C(OP(=O)(O)O)C(OP(=O)(O)O)C(OP(=O)(O)O)C1OP(=O)(O)O` (stereo not drawn) [Myo-InsP5(1), myo-inositol-(2,3,4,5,6-pentakisphosphate)], the AC50 with TcdA and TcdB holotoxins [1] (setting [4]) was found to be 8.67 µM.

In the case of `O=P(O)(O)OC1C(O)C(OP(=O)(O)O)C(OP(=O)(O)O)C(OP(=O)(O)O)C1O` (stereo not drawn) [Myo-InsP4(2,6), myo-inositol-(1,3,4,5-tetrakisphosphate)], the AC50 in the series on TcdA and TcdB holotoxins [1] (setting [4]) is > 1000 µM.
